For series [1], the system named is HepG2. The experiment in a line: Cytotoxicity against human HepG2 cells after 48 hrs by neutral red assay. Format: cell-based. To be noted: HepG2, 48 h.
A further series concerns THP-1. The series can be described thus: Cytotoxicity against human THP1 cells up to 10 ug/ml after 48 hrs by neutral red assay. Format: cell-based. To be noted: thp-1, 48 h.
In series [2] the test system is Leishmania donovani. The series can be described thus: Antimicrobial activity against promastigote stage of Leishmania donovani infected in human THP1 cells after 72 hrs by Alamar Blue assay. Type of series: functional, organism-based. The settings on record: for IC90: THP-1; for IC50: thp-1. On the technique in general: Alamar Blue is a resazurin reagent that responds to reducing activity.

The subject of series [3] is LLC-PK1. The experiment in a line: Cytotoxicity against pig LLC-PK1 cells after 48 hrs by neutral red assay. Format: cell-based. To be noted: Sus scrofa, LLC-PK1, 48 h.
The subject of another series is Trypanosoma brucei. The experiment in a line: Antimicrobial activity against trypamastigote stage of Trypanosoma brucei after 72 hrs by Alamar Blue assay. Type of series: functional, organism-based.
The subject of series [4] is Leishmania donovani. The series can be described thus: Antimicrobial activity against promastigote stage of Leishmania donovani after 72 hrs by Alamar Blue assay. Format: functional, organism-based.
Series [5] relates to Leishmania donovani. The series can be described thus: Antimicrobial activity against axenic amastigote stage of Leishmania donovani after 72 hrs by Alamar Blue assay. Format: functional, organism-based.
Series [6] deals with Leishmania infantum. The series can be described thus: Antimicrobial activity against amastigote stage of Leishmania infantum. Format: functional, organism-based.
Series [7] has as its system Leishmania infantum. The series can be described thus: Antimicrobial activity against promastigote stage of Leishmania infantum. Type of series: functional, organism-based.
Series [8] has as its system Trypanosoma brucei brucei. The series can be described thus: Antimicrobial activity against bloodstream form of Trypanosoma brucei brucei TC221. Type of series: functional, organism-based.
The subject of another series is Trypanosoma cruzi. The series can be described thus: Antimicrobial activity against epimastigote stage of Trypanosoma cruzi Y. Type of series: functional, organism-based.
The next series deals with Vero. The series can be described thus: Cytotoxicity against African green monkey Vero cells up to 25 ug/ml after 48 hrs by neutral red assay. Format: cell-based. To be noted: chlorocebus sabaeus.
In series [9] the test system is HepG2. The series can be described thus: Cytotoxicity against human HepG2 cells up to 25 ug/ml after 48 hrs by neutral red assay. Format: cell-based. To be noted: hepg2, 48 h.
Series [10] concerns LLC-PK1. The series can be described thus: Cytotoxicity against pig LLC-PK1 cells up to 25 ug/ml after 48 hrs by neutral red assay. Format: cell-based, Sus scrofa. To be noted: llc-pk1, 48 h.
Setting [11] is: Leishmania donovani, 72 h, read-out: IC50.
[12] abbreviates: Trypanosoma brucei, 72 h, read-out: IC50.

From ChEMBL document CHEMBL3352781, “Synthesis, antileishmanial and antitrypanosomal activities of N-substituted tetrahydro-β-carbolines” (Bioorg Med Chem Lett, 2014) come the findings set out here.

Calls of active or inactive are those of the source. The calls are words filed in the database; no cut-off is given here.

For `O=C(c1ccc([N+](=O)[O-])s1)N1CCc2c([nH]c3ccccc23)C1`, the IC50 in the series on HepG2 [1] was 63.6 µM; in the series with Leishmania donovani [2], “Not Active”; in the series with LLC-PK1 [3] it was 56 µM; with Trypanosoma brucei, “Not Active”; with Leishmania donovani [4] (setting [11]), 12.7 µM; in the series on Leishmania donovani [5] (setting [11]), 62.8 µM. Further, the Activity entry in the series with THP-1 was “Non-toxic”. The IC90 entry in the series on Leishmania donovani [2] and with Trypanosoma brucei was “inactive” each time. The IC90 in the series with Leishmania donovani [4] (Leishmania donovani, 72 h) worked out at 36.6 µM; in the series with Leishmania donovani [5] (Leishmania donovani, 72 h), 107 µM.

Regarding `COc1ccc2c(c1)[nH]c1c(C)nccc12` [HARMINE], the IC50 in the series on Leishmania infantum [6] amounted to 0.23 µM; with Leishmania infantum [7], 3.7 µM; in series [8] it was 74 µM; in the series with Trypanosoma brucei (setting [12]), 74 µM; in the series with Leishmania donovani [4] (setting [11]), 3.7 µM; in the series with Leishmania donovani [5] (setting [11]) it was 0.23 µM.

In the series on Trypanosoma cruzi, `CN1CCN(C(=O)c2cc3c4ccccc4n4c(=O)c5ccccc5c(n2)c34)CC1` registered an IC50 of 0.4 µM.

In the case of `O=C(c1ccc(-c2cccc([N+](=O)[O-])c2)o1)N1CCc2c([nH]c3ccccc23)C1`, the Activity entry in the series with THP-1, in the series with Vero, with HepG2 [9] and in the series on LLC-PK1 [10] was “Non-toxic” in each case. Also, the IC90 result with Leishmania donovani [2], with Trypanosoma brucei and with Leishmania donovani [5] was “inactive” throughout. In addition, the IC50 result was “Not Active” with Leishmania donovani [2], “Not Active” in the series with Trypanosoma brucei, 66.7 µM in the series with Leishmania donovani [4] (setting [11]) and “Not Active” in the series on Leishmania donovani [5].

`COc1ccc2c3c([nH]c2c1)C(C)=NCC3` [HARMALINE]: the IC50 amounted to 1.16 µM with Leishmania infantum [6], 117 µM in the series on Leishmania infantum [7], 117 µM in the series on Leishmania donovani [4] (setting [11]) and 1.16 µM in the series on Leishmania donovani [5] (setting [11]).

With `Cc1noc(C)c1CN1CCc2c([nH]c3ccccc23)C1`, the Activity result in the series with THP-1, with Vero, with HepG2 [9] and in the series with LLC-PK1 [10] was “Non-toxic” each time. The IC90 result in the series on Leishmania donovani [2], in the series with Leishmania donovani [4] and in the series on Leishmania donovani [5] was “inactive” in each case. The IC50 result with Leishmania donovani [2] is “Not Active”; in the series with Trypanosoma brucei (setting [12]), 15.9 µM; with Leishmania donovani [4] it was “Not Active”; in the series with Leishmania donovani [5], “Not Active”. Further, in the series with Trypanosoma brucei (Trypanosoma brucei, 72 h), the IC90 came out at 26.3 µM.

As for `Cc1nccc2c1[nH]c1ccccc12` [HARMAN], the IC50 is 0.27 µM with Leishmania infantum [6], 19.2 µM in the series on Leishmania infantum [7], 19.2 µM with Leishmania donovani [4] (setting [11]) and 0.27 µM in the series with Leishmania donovani [5] (setting [11]).

As for `O=C(c1ccc(-c2cc(C(F)(F)F)ccc2Cl)o1)N1CCc2c([nH]c3ccccc23)C1`, the IC50 in the series with HepG2 [1] is 25.5 µM; in the series with Leishmania donovani [2], “Not Active”; with Trypanosoma brucei it was “Not Active”; in the series with Leishmania donovani [4] (setting [11]), 39.6 µM; in the series with Leishmania donovani [5] (setting [11]), 37.1 µM. Further, the Activity result in the series on THP-1 is recorded as “Non-toxic”. Also, the IC90 entry in the series with Leishmania donovani [2] and in the series with Trypanosoma brucei was “inactive” each time. The IC90 in the series with Leishmania donovani [4] (Leishmania donovani, 72 h) amounted to 69.1 µM; in the series on Leishmania donovani [5] (Leishmania donovani, 72 h), 76 µM.

Consider `Cc1ccsc1C(=O)N1CCc2c([nH]c3ccccc23)C1`, for which the Activity entry in the series with THP-1, in the series with Vero, with HepG2 [9] and in the series with LLC-PK1 [10] was “Non-toxic” throughout. Further, the IC90 entry with Leishmania donovani [2], with Trypanosoma brucei and with Leishmania donovani [5] was “inactive” each time. The IC50 result was “Not Active” with Leishmania donovani [2], “Not Active” in the series on Trypanosoma brucei, 26 µM with Leishmania donovani [4] (setting [11]) and “Not Active” in the series with Leishmania donovani [5].

By IC50 is commonly meant the concentration that gives 50% inhibition. A word on the IC90: it is the point of the concentration-response curve where the effect stands at 90%.
